Test results from US6087493A, “Porphyrin compounds as telomerase inhibitors” (Regents of the University of Texas System, priority 1998, dated 2000).
Where two headings read alike, the source gives them in different places.

Assays:
[1] = system: LNCap; assay: Cytotoxicity (MTT) LNCap; format: cell-based, human; settings: Homo sapiens; LNCap (prostate), 4-7 days; read-out: IC 50 cytotoxicity
Experimental: (§1) The cells were cultured in the presence of the porphyrins incubator for 4-7 days and then treated with 3-(4,5-dimethylthiazol-2-yl)-2,5-diphenyl-tetrazolium bromide (MTT). Formazan concentration was quantitated by absorbance at 570 nm.

[2] = in vitro; format: cell-based; settings: human, hs578bst cells; HS578 Bst, Thy (n = 3 ± SEM); read-out: Cytotoxicity
Experimental: Cytotoxicity of the compounds to human breast cancer cells in vitro was assessed using a panel of cell lines representing estrogen receptor-positive (BT20, MCF-7m), and a pair of estrogen receptor-negative, transformed breast (11S578t) and normal breast (HS578Bst) cells.
Thy: tritiated […] assay (n = 3 ± SEM)

[3] = system: BT-20; assay: Cytotoxicity (MTT) BT-20; format: cell-based, human; settings: Homo sapiens; BT-20 (breast), 4-7 days; read-out: IC 50 cytotoxicity
Experimental: as §1

[4] = system: MX-1 mammary carcinoma; settings: for # CR's: n=20
Experimental: A MX-1 human breast tumor adjuvant model employed nude mice (Harlan Sprague Dawley, Inc.). The mice were implanted s.c. by trocar with fragments of MX-1 mammary carcinomas harvested from S.C. growing MX-1 tumors in nude mice hosts. When tumors were approximately 5 mm×5 mm in size (about 10 days after inoculation), the animals received cytoxan at 200 mg/kg. After tumors regressed (fifteen days after cytoxan administration), the animals were pair-matched into groups of mice, each of which was eartagged and followed individually throughout the experiment. The i.p. daily administration of TMPyP4 at 10 and 20 mg/kg five times weekly, began the day the animals were pairmatched (Day 1). TMPyP4 20 mg/kg was administered for 47 days. At the 10 mg/kg dose, TMPyP4 was administered continuously to the end of the study.
Mice were weighed twice weekly and tumor measurements were taken by calipers twice weekly, starting on Day 1. These tumor measurements were converted to mg tumor weight by a well-known formula, and from these calculated tumor weights, the termination date for each individual mouse was determined. Mice were euthanized when their tumors reached approximately 2 grams. Time to tumor recurrence and survival were monitored during the study.

[5] = system: MCF7 cells; assay: Cell cycle analysis in MCF7 cells; format: cell-based, human
Experimental: The effects of TMPyP4 on the cell cycle were assessed by flow cytometry by measuring the percentage of cells in G1/G0, S, and G2/M phases, with and without treatment with the porphyrin. Cells were stained with 50 μg/ml propidium iodide in a hypotonic sodium citrate solution with 0.3% NP-40 and 1.0 mg/ml RNase-A at 1.0×10^6 cells/ml, vortexed and stained for 30 min at room temperature in the dark. Prior to flow cytometric measurements, samples were filtered through a 37 μm nylon mesh into 12×75 mm tubes and stored at 4° C. until analysis within 24 h. All samples were analyzed with an EPICS ELITE flow cytometer (Coulter Cytometry, Miami, Fla.) using a 15 m Watt argon ion laser operated at 6 Amps of power at 488 nm for fluorochrome excitation. Photomultiplier tube voltage was adjusted for each control sample to position the G0G1 to channel 240 on a 1024 channel presentation. The propidium iodide emission was collected through a 675 nm long pass filter. Histograms were analyzed for cell cycle compartments using MultiCycle-PLUS Version 3.0 (Phoenix Flow Systems, San Diego, Calif.). Histograms all had 50K events collected to maximize the statistical validity of the compartmental analysis.
The inventors examined whether the treatment of MCF7 cells with TMPyP4 affected the cell cycle.

[6] = system: MDA-231; assay: Cytotoxicity (MTT) MDA-231; format: cell-based, human; settings: Homo sapiens, MDA-MB-231; MDA-231 (breast), 4-7 days; read-out: IC 50 cytotoxicity
Experimental: as §1

[7] = system: sea urchin embryos
Experimental: Lytechinus pictus sea urchins were purchased from Marinus Inc. (Long Beach, Calif.) and maintained at 15° C. in refrigerated aquaria containing Instant Ocean synthetic sea water, following a described procedure [Vafa, 1996 #300]. For polyspermic fertilization, 0.01 vol freshly prepared stock sperm suspension (25 ml ASW containing 2 ml undiluted semen) was added to the eggs suspended for 10 min at 1% concentration in ASW adjusted to pH 9.0 with NH4 OH and stirred at 60 rpm with motor-driven Teflon paddles. Ten min after insemination, the fertilized eggs were allowed to settle, and the supernatant ASW containing sperm was aspirated and replaced with fresh ASW. The embryos were cultured at 18° C. Twenty min after fertilization TMPyP4 or TMPyP4.Pt^II (100 μM final concentration) was added from a concentrated stock in DMSO to 1% embryo suspensions. Equivalent amounts of DMSO (final 0.1%) were added to control egg suspensions. At measured times after insemination, the embryos were pelleted by centrifugation and resuspended in Carnoy's fixative (ethanol:acetic acid, 3:1) for at least 1 hr. After fixation the embryos were pelleted and resuspended successively in: (1) ethanol:acetic acid, 1:1 for 5-15 min: (2) 45% acetic acid for 5-15 min; (3) room temperature 1 N HCl for 1-2 min: (4) 60° C. 1 N HCl for 7-8 min; (5) room temperature 1 N HCl for 1-2 min; (6) Schiffs reagent for 90-120 min; and (7) 45% acetic acid before affixing the embryos to microscope slides. Embryo samples were placed on microscope slides, covered with coverslips, and frozen on a bed of dry ice. After at least 30 min, the coverslips were popped off using a razor blade and the slides were immediately plunged into Coplin jars containing 95% ethanol for 5-10 min. The slides were then transferred to Coplin jars containing 100% ethanol for 3-5 min. After removing the slides and allowing them to air dry, the embryos were mounted with one drop Permount (Fisher) under a coverglass.
The inventors examined whether treatment of the embryos with G-quadroplex interactive agents can cause observable chromosomal abnormalities. A time course of the embryo development was followed in the presence of 10 μM and 100 μM concentrations of TMPyP4 or TMPyP4.Pt^II.

## C[n+]1ccc(-c2c3nc(c(-c4cc[n+](C)cc4)c4ccc([nH]4)c(-c4cc[n+](C)cc4)c4nc(c(-c5cc[n+](C)cc5)c5ccc2[nH]5)C=C4)C=C3)cc1 [TMPyP4, 5,10,15,20-tetra-(N-methyl-4-pyridyl)porphine]
[1]
  IC50: 22.8 µM
[2]
  CC50: > 100 µM
[3]
  IC50: 106 µM
[4]; 10 mg/kg
  # PS Remaining: 0
  # Partial Shrinkage: 2
  # Recur at 2 g: 6
  # Remaining w/Tumors: 1
  # of Recur: 8
  # of Survivors: 11
  # of Toxic Deaths: 1
  % CR's: 90%
  Avg Day of Recur: 25 days
  MDS: 55
  MDS-Partial Shrinkages: 36.0
  Mean Tumor Wt.: 11.52 mg
[4]; 10 mg/kg i.p. daily five times weekly
  # CR's: 18
[4]; 20 mg/kg
  # PS Remaining: 0
  # Partial Shrinkage: 5
  # Recur at 2 g: 8
  # Remaining w/Tumors: 0
  # of Recur: 9
  # of Survivors: 6
  # of Toxic Deaths: 1
  % CR's: 75%
  Avg Day of Recur: 19.33 days
  MDS: 67.4
  MDS-Partial Shrinkages: 44.6
[4]; 20 mg/kg i.p. daily five times weekly
  # CR's: 15
[5]; 100 μM, days 4, 8 and 15
  G2/M phase fraction: time-dependent gradual increase in the G2/M phase
[5]; long-term exposure
  MCF7 cells arrested in G2/M: not more than 32%
[6]
  IC50: 44 µM
[7]; 10 μM, 150 min after fertilization
  differences from controls in embryos: no definitive differences were seen
[7]; 100 μM
  condensed chromosome length / chromosomal effects: condensed chromosomes were longer than in the untreated controls
[7]; in vivo
  proliferation and mitosis in embryos: significantly decreases proliferative rates in the developing embryos and increases the percent of the cell in mitosis
  toxicity to embryos: generally non-toxic to the embryos
[7]; later time points
  cell number and morphology of embryos: fewer cells, many very misshapen and variable in size relative to the controls
[7]; treated embryos
  first signs of ciliary motility: 9 h
